Results published in ChEMBL document CHEMBL1201862, “PubChem BioAssay data set” (2004).
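1) Cells in 96-well plates. 2) Compound, 48 h, 5 concentrations. 3) Linear interpolation between surrounding doses. 4) Unreached endpoint = highest concentration. The concentration for 50% growth inhibition is given as GI50.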 Calls of active or inactive are those of the source. Rule as the data show it: active = GI50 up to about 1.1 µM and inactive = higher.

Assays:
Experiment in all cases: NCI anticancer screen, dose series, 48 h
[1] = system: 786-0
[2] = system: A498
[3] = system: A549
[4] = system: ACHN
[5] = system: CAKI-1
[6] = system: COLO 205
[7] = system: DLD-1
[8] = system: DMS-273
[9] = system: EKVX
[10] = system: HCC 2998
[11] = system: HCT-116
[12] = system: HCT-15
[13] = system: HOP-18
[14] = system: HOP-62
[15] = system: HOP-92
[16] = system: HT-29
[17] = system: IGROV-1
[18] = system: K562
[19] = system: KM-20L2
[20] = system: KM12
[21] = system: LXFL 529
[22] = system: M14
[23] = system: M19-MEL
[24] = system: MOLT-4
[25] = system: Malme-3M
[26] = system: NCI-H226
[27] = system: NCI-H23
[28] = system: NCI-H460
[29] = system: NCI-H522
[30] = system: OVCAR-4
[31] = system: OVCAR-5
[32] = system: OVCAR-8
[33] = system: RPMI-8226
[34] = system: RXF 393
[35] = system: SF-268
[36] = system: SF-295
[37] = system: SF-539
[38] = system: SK-MEL-28
[39] = system: SK-MEL-2
[40] = system: SK-MEL-5
[41] = system: SK-OV-3
[42] = system: SN12C
[43] = system: SNB-19
[44] = system: SNB-75
[45] = system: SNB-78
[46] = system: SR
[47] = system: SW-620
[48] = system: TK-10
[49] = system: U-251
[50] = system: UACC-257
[51] = system: UACC-62
[52] = system: UO-31
[53] = system: BT-549
[54] = system: CCRF-CEM
[55] = system: DMS-114
[56] = system: HL-60
[57] = system: Hs-578T
[58] = system: LOX IMVI
[59] = system: MCF7
[60] = system: NCI/ADR-RES
[61] = system: OVCAR-3
[62] = system: PC-3

Measured: GI50

O=[N+]([O-])c1ccc(C2=NN(c3ccccc3)C[N+](c3ccc(Br)cc3)=N2)cc1
inactive: [1] > 100 µM | [2] > 100 µM | [3] 82 µM | [4] > 100 µM | [5] > 100 µM | [6] > 100 µM | [7] > 100 µM | [8] > 100 µM | [9] > 100 µM | [10] 41.6 µM | [11] 89.5 µM | [13] > 100 µM | [14] > 100 µM | [15] 78.7 µM | [16] > 100 µM | [17] > 100 µM | [18] 70.3 µM | [19] > 100 µM | [20] > 100 µM | [21] 63.5 µM | [22] > 100 µM | [23] > 100 µM | [24] 44.3 µM | [25] > 100 µM | [26] > 100 µM | [27] 70.6 µM | [28] > 100 µM | [29] 38.1 µM | [30] > 100 µM | [31] > 100 µM | [32] > 100 µM | [33] > 100 µM | [34] 31.1 µM | [35] 60.5 µM | [36] 75.5 µM | [37] 46 µM | [38] > 100 µM | [39] > 100 µM | [40] > 100 µM | [41] > 100 µM | [42] > 100 µM | [43] > 100 µM | [44] > 100 µM | [45] > 100 µM | [46] 96.8 µM | [47] > 100 µM | [48] > 100 µM | [49] 71.3 µM | [50] > 100 µM | [51] > 100 µM | [52] > 100 µM
> 100 µM: [12]

COc1cc(CNc2ccc(SC)cc2)cc(OC)c1OC
inactive: [1] 8.2 µM | [2] 13.6 µM | [3] 8.41 µM | [53] 1.63 µM | [54] 6.65 µM | [6] 3.47 µM | [55] 3.37 µM | [8] 4.48 µM | [9] 27.1 µM | [11] 4.71 µM | [56] 2.55 µM | [13] 22.6 µM | [16] 3.35 µM | [57] 11 µM | [19] 4.31 µM | [58] 5.75 µM | [21] 12.6 µM | [22] 3.27 µM | [59] 3.36 µM | [24] 5.6 µM | [25] 7.29 µM | [28] 4.38 µM | [29] 2.88 µM | [60] 3.15 µM | [61] 3.68 µM | [30] 27 µM | [31] 17.2 µM | [62] 6.95 µM | [33] 8.57 µM | [39] 6.27 µM | [45] 53.8 µM | [47] 3.46 µM | [52] 10.9 µM
4.23 µM: [12]

CCn1cnc2c(=S)nc(N)[nH]c21
inactive: [1] > 100 µM | [3] > 100 µM | [4] > 100 µM | [54] > 100 µM | [6] > 100 µM | [7] > 100 µM | [55] > 100 µM | [8] > 100 µM | [9] > 100 µM | [10] > 100 µM | [11] > 100 µM | [56] > 100 µM | [14] > 100 µM | [16] > 100 µM | [17] > 100 µM | [18] > 100 µM | [19] > 100 µM | [20] > 100 µM | [58] > 100 µM | [21] > 100 µM | [22] > 100 µM | [23] > 100 µM | [24] > 100 µM | [25] > 100 µM | [26] > 100 µM | [27] > 100 µM | [28] > 100 µM | [29] > 100 µM | [61] > 100 µM | [32] > 100 µM | [33] > 100 µM | [34] > 100 µM | [35] > 100 µM | [36] > 100 µM | [37] > 100 µM | [38] > 100 µM | [41] > 100 µM | [42] > 100 µM | [43] > 100 µM | [44] > 100 µM | [45] > 100 µM | [46] > 100 µM | [47] > 100 µM | [48] > 100 µM | [49] > 100 µM | [50] > 100 µM | [51] > 100 µM | [52] > 100 µM
> 100 µM: [12]
